Measurements taken from publication PMC11345399 (The Journal of Biological Chemistry, 2024).
Several values for one entry are separate records, joined by “and”; a condition that tells them apart may be missing. Equal values may be shown once. Read-outs that look alike come from different tables or passages of the source. Marks after values point to notes of the source that are not given here.

How the values were obtained:
SARS-CoV-2 RdRp complex [1] = target: T1, SARS-CoV-2 RdRp complex (Severe acute respiratory syndrome coronavirus 2, UniProt P0DTD1); settings: cited from earlier work; for Km: previously reported
[2] = target: T2, human mitochondrial RNA polymerase (h-mtRNAP) (Homo sapiens, UniProt O00411); assay type: biochemical
T2 sequence (O00411 42-1230 limits assumed): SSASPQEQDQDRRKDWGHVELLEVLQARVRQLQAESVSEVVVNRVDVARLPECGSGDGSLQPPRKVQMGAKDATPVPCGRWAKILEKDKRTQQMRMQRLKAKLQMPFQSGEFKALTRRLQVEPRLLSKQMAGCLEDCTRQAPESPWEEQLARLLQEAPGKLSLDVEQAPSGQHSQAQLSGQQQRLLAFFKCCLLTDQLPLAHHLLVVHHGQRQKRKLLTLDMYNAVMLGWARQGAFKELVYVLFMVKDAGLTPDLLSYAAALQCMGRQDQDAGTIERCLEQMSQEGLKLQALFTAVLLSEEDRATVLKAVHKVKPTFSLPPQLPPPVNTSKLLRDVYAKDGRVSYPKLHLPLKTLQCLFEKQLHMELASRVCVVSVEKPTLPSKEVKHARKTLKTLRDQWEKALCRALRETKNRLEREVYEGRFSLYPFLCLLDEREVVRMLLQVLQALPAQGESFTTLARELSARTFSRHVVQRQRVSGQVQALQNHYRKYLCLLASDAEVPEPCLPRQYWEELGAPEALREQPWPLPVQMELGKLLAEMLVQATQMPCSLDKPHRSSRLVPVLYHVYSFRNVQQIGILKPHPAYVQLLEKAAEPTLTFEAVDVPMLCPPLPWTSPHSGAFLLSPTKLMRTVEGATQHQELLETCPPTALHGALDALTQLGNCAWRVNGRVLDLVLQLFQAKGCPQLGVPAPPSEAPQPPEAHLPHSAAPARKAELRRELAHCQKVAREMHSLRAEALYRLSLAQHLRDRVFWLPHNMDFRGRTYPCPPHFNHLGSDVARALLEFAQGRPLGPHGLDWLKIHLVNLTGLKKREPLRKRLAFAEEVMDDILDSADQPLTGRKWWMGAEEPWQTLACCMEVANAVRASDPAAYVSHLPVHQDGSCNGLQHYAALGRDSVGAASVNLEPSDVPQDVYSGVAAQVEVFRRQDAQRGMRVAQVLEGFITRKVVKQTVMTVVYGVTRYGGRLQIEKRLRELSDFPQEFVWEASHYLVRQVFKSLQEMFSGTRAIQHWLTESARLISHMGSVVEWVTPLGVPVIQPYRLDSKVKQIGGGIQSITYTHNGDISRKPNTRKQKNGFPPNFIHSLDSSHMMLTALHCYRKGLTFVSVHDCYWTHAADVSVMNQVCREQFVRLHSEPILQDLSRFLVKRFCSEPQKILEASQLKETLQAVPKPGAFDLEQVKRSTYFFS

LASV RdRp [3] = target: T3, LASV RdRp (Mammarenavirus lassaense, UniProt Q6GWS2); settings: cited from earlier work
[4] = target: T2, human mitochondrial RNA polymerase (h-mtRNAP); settings: cited from earlier work
RSV RdRp complex [5] = target: T4, RSV RdRp complex (Human respiratory syncytial virus A, UniProt P28887); settings: cited from earlier work
PIV-5 RdRp complex = PIV-5 RdRp complex (Parainfluenza virus 5, UniProt Q88434)
influenza B RdRp [6] = target: T5, influenza B RdRp (Influenza B virus, UniProt Q5V8Y6); assay type: biochemical
SARS-CoV RdRp complex = settings: cited from earlier work
RSV RdRp complex [7] = target: T4, RSV RdRp complex
LASV RdRp [8] = target: T3, LASV RdRp
MERS-CoV RdRp complex [9] = target: T6, MERS-CoV RdRp complex (Middle East respiratory syndrome-related coronavirus, UniProt K9N7C7)
EV-71 RdRp (3Dpol) = EV-71 RdRp (3Dpol) (Enterovirus A71, UniProt E5RPG3)
HRV-16 RdRp (3Dpol) = HRV-16 RdRp (3Dpol) (Human rhinovirus 16, UniProt Q82122)
HPIV-3 RdRp complex = HPIV-3 RdRp complex (Human parainfluenza 3 virus, UniProt P12577)
MERS-CoV RdRp complex [10] = target: T6, MERS-CoV RdRp complex; settings: cited from earlier work
HMPV RdRp complex = HMPV RdRp complex (Human metapneumovirus, UniProt Q6WB93)
influenza B RdRp [11] = target: T5, influenza B RdRp; settings: cited from earlier work
EV-71 RdRp [12] = assay type: biochemical
HRV-16 RdRp [13] = target: T7, HRV-16 RdRp (Human rhinovirus 16, UniProt Q82122); assay type: biochemical
HRV-16 RdRp [14] = target: T7, HRV-16 RdRp; assay type: biochemical; remark: listed apart in the source
SARS-CoV-2 RdRp = SARS-CoV-2 RdRp (Severe acute respiratory syndrome coronavirus 2, UniProt P0DTD1); assay type: biochemical
MERS-CoV RdRp = MERS-CoV RdRp (Middle East respiratory syndrome-related coronavirus, UniProt K9N7C7); assay type: biochemical
PIV-5 RdRp = PIV-5 RdRp (Parainfluenza virus 5, UniProt Q88434); assay type: biochemical
HMPV RdRp = HMPV RdRp (Human metapneumovirus, UniProt Q6WB93); assay type: biochemical
HPIV-3 RdRp = HPIV-3 RdRp (Human parainfluenza 3 virus, UniProt P12577); assay type: biochemical
EV-71 RdRp [15] = assay type: biochemical; remark: listed apart in the source
SARS-CoV-2 RdRp complex [16] = target: T1, SARS-CoV-2 RdRp complex
RSV RdRp = RSV RdRp (Human respiratory syncytial virus A, UniProt P28887); assay type: biochemical
[17] = system: Nc1ncnc2c1ncn2[C@@H]1O[C@H](COP(=O)(O)OP(=O)(O)OP(=O)(O)O)[C@@H](O)[C@H]1O; experiment: purified protein, by the assay type; settings: pH 8.0
[18] = system: N#C[C@@]1(c2ccc3c(N)ncnn23)O[C@H](COP(=O)(O)OP(=O)(O)OP(=O)(O)O)[C@@H](O)[C@H]1O; experiment: purified protein, by the assay type; settings: pH 8.0
[19] = SARS-CoV-2 RdRp, ref Gordon et al. ([45])

Nc1ncnc2c1ncn2[C@@H]1O[C@H](COP(=O)(O)OP(=O)(O)OP(=O)(O)O)[C@@H](O)[C@H]1O [ATP]
Km (SARS-CoV-2 RdRp complex [1]; [19]): 0.03 ± 0.003 µM | Km [2]: 0.096 ± 0.0091 µM | Vmax (product fraction) [2]: 0.93 ± 0.026 | Km (LASV RdRp [3]): 0.11 ± 0.02 µM | Vmax (product fraction) (LASV RdRp [3]): 0.57 ± 0.032 | Km [4]: 0.05 ± 0.0037 µM | Vmax (product fraction) [4]: 0.98 ± 0.018 | Km (RSV RdRp complex [5]): 0.17 ± 0.023 µM | Vmax (product fraction) (RSV RdRp complex [5]): 0.76 ± 0.022 | Vmax (product fraction) (PIV-5 RdRp complex): 0.74 ± 0.026 | Vmax (product fraction) (influenza B RdRp [6]): 0.68 ± 0.014 | Km (SARS-CoV RdRp complex): 0.03 ± 0.003 µM | Vmax (product fraction) (SARS-CoV RdRp complex): 0.73 ± 0.017 | Vmax (product fraction) (RSV RdRp complex [7]): 0.61 ± 0.065 | Vmax (product fraction) (LASV RdRp [8]): 0.80 ± 0.0037 | Vmax (product fraction) (MERS-CoV RdRp complex [9]): 0.84 ± 0.0090 | Vmax (product fraction) (EV-71 RdRp (3Dpol)): 0.96 ± 0.021 | Vmax (product fraction) (HRV-16 RdRp (3Dpol)): 0.90 ± 0.017 | Vmax (product fraction) (HPIV-3 RdRp complex): 0.63 ± 0.025 | Km (MERS-CoV RdRp complex [10]): 0.017 ± 0.019 µM | Vmax (product fraction) (MERS-CoV RdRp complex [10]): 0.47 ± 0.011 | Vmax (product fraction) (HMPV RdRp complex): 0.60 ± 0.024 and 0.39 ± 0.028 | Vmax (product fraction) (influenza B RdRp [11]): 0.73 ± 0.014

N#C[C@@]1(c2ccc3c(N)ncnn23)O[C@H](COP(=O)(O)OP(=O)(O)OP(=O)(O)O)[C@@H](O)[C@H]1O [GS-443902]
Pattern of inhibition of RNA primer extension after incorporation at position i (EV-71 RdRp [12]): intermediate product at position “i + 3” | Vmax (product fraction) of UTP incorporation at i + 1 (EV-71 RdRp [12]): 0.48 ± 0.005 | Km (SARS-CoV-2 RdRp complex [1]; [19]): 0.0089 ± 0.002 µM | Selectivity (fold), Vmax/Km ATP over Vmax/Km analog (SARS-CoV-2 RdRp complex [1]; [19]): 0.28 ^d fold | Vmax (product fraction) (SARS-CoV-2 RdRp complex [1]): 0.74 ± 0.023 | Vmax (product fraction) [2]: 0.67 ± 0.22 | Km (LASV RdRp [3]): 1.3 ± 0.18 µM | Selectivity (fold), Vmax/Km ATP over Vmax/Km analog (LASV RdRp [3]): 20 ^d fold | Vmax (product fraction) (LASV RdRp [3]): 0.35 ± 0.016 | Km [4]: 21 ± 0.096 µM | Vmax (product fraction) [4]: 0.81 ± 0.013 | Selectivity (fold), Vmax/Km ATP over Vmax/Km analog ([4]; h-mtRNAP, ref Tchesnokov et al. ([47])): 503 ^e fold | Selectivity (fold), Vmax/Km ATP over Vmax/Km analog (RSV RdRp complex [5]; RSV RdRp, ref Tchesnokov et al. ([47])): 2.7 fold and 2.73 ^e fold | Km (RSV RdRp complex [5]): 0.5 ± 0.089 µM | Vmax (product fraction) (RSV RdRp complex [5]): 0.82 ± 0.027 | Selectivity (fold), Vmax/Km ATP over Vmax/Km analog (PIV-5 RdRp complex): 8.3 fold and 8.31 fold | Vmax (product fraction) (PIV-5 RdRp complex): 0.77 ± 0.042 and 0.69 ± 0.013 | Vmax (product fraction) (influenza B RdRp [6]): 0.18 ± 0.0057 | Km (SARS-CoV RdRp complex): 0.01 ± 0.0008 µM | Selectivity (fold), Vmax/Km ATP over Vmax/Km analog (SARS-CoV RdRp complex): 0.32 ^d fold | Vmax (product fraction) (SARS-CoV RdRp complex): 0.70 ± 0.015 | Vmax (product fraction) (RSV RdRp complex [7]): 0.80 ± 0.059 | Inhibition (fold) vs Template A (HRV-16 RdRp [13]): ~8 fold and 7.8 fold | UTP (HRV-16 RdRp [13]): 3.9 µM | Pattern of inhibition of RNA primer extension after incorporation at position i (HRV-16 RdRp [14]): intermediate product at position “i + 3” | Vmax (product fraction) of UTP incorporation at i + 1 (HRV-16 RdRp [14]): 0.67 ± 0.015 | Vmax (product fraction) (LASV RdRp [8]): 0.29 ± 0.091 | Vmax (product fraction) (MERS-CoV RdRp complex [9]): 0.90 ± 0.012 | Vmax (product fraction) (EV-71 RdRp (3Dpol)): 0.93 ± 0.027 and 0.93 ± 0.019 | Vmax (product fraction) (HRV-16 RdRp (3Dpol)): 0.96 ± 0.015 and 0.80 ± 0.021 | Selectivity (fold), Vmax/Km ATP over Vmax/Km analog (HPIV-3 RdRp complex): 7.20 fold | Vmax (product fraction) (HPIV-3 RdRp complex): 0.63 ± 0.010 and 0.78 ± 0.012 | Pattern of inhibition of RNA primer extension after incorporation at position i (SARS-CoV-2 RdRp): intermediate product at position “i + 3” | Vmax (product fraction) of UTP incorporation at i + 1 (SARS-CoV-2 RdRp): 1.13 ± 0.047 | Vmax (product fraction) of UTP incorporation at i + 1 (MERS-CoV RdRp): 0.98 ± 0.018 | Km (MERS-CoV RdRp complex [10]): 0.0063 ± 0.0006 µM | Selectivity (fold), Vmax/Km ATP over Vmax/Km analog (MERS-CoV RdRp complex [10]): 0.35 ^d fold | Vmax (product fraction) (MERS-CoV RdRp complex [10]): 0.50 ± 0.012 | Selectivity (fold), Vmax/Km ATP over Vmax/Km analog (HMPV RdRp complex): 6.7 fold and 6.71 fold | Vmax (product fraction) (HMPV RdRp complex): 0.57 ± 0.045 and 0.53 ± 0.027 | Selectivity (fold), Vmax/Km ATP over Vmax/Km analog (influenza B RdRp [11]; FluB RdRp, ref Gordon et al. ([45])): 68 ^d fold | Vmax (product fraction) (influenza B RdRp [11]): 0.45 ± 0.0064 | Vmax (product fraction) of UTP incorporation at i + 1 (PIV-5 RdRp): 0.48 ± 0.0089 | Vmax (product fraction) of UTP incorporation at i + 1 (HMPV RdRp): 0.28 ± 0.018 | Vmax (product fraction) of UTP incorporation at i + 1 (HPIV-3 RdRp): 0.58 ± 0.011 | Inhibition (fold) of UTP incorporation across embedded analog (EV-71 RdRp [15]): ~16 fold | Vmax (product fraction) (SARS-CoV-2 RdRp complex [16]): 0.88 ± 0.015

AMP
Vmax (product fraction) of UTP incorporation at i + 1 (EV-71 RdRp [12]): 0.65 ± 0.003 | Vmax (product fraction) of UTP incorporation at i + 1 (HRV-16 RdRp [14]): 0.76 ± 0.015 | Vmax (product fraction) of UTP incorporation at i + 1 (RSV RdRp): 0.70 ± 0.037 | Vmax (product fraction) of UTP incorporation at i + 1 (MERS-CoV RdRp): 1.03 ± 0.016 | Vmax (product fraction) of UTP incorporation at i + 1 (PIV-5 RdRp): 0.51 ± 0.022 | Vmax (product fraction) of UTP incorporation at i + 1 (HMPV RdRp): 0.48 ± 0.026 | Vmax (product fraction) of UTP incorporation at i + 1 (HPIV-3 RdRp): 0.56 ± 0.0097

EV-71 RdRp (3Dpol) (Enterovirus A71)
Km [17]: 0.96 ± 0.066 µM | Km [18]: 0.86 ± 0.081 µM

HMPV RdRp complex (Human metapneumovirus CAN97-83)
Km [18]: 42.19 ± 7.79 µM

HPIV-3 RdRp complex (Human parainfluenza 3 virus (strain NIH 47885))
Km [17]: 0.061 ± 0.015 µM | Km [18]: 0.44 ± 0.040 µM

HRV-16 RdRp (3Dpol) (rhinovirus A16)
Km [17]: 4.52 ± 0.31 µM | Km [18]: 4.96 ± 0.27 µM

LASV RdRp (Lassa virus Josiah)
Km [17]: 0.39 ± 0.075 µM

MERS-CoV RdRp complex (Betacoronavirus England 1)
Km [17]: 0.032 ± 0.0014 µM

PIV-5 RdRp complex (Simian virus 5 (strain W3))
Km [17]: 1.5 ± 0.25 µM | Km [18]: 13 ± 2.3 µM

RSV RdRp complex (Human respiratory syncytial virus A2)
Km [17]: 0.97 ± 0.36 µM

SARS-CoV-2 RdRp complex (Severe acute respiratory syndrome coronavirus 2)
Km [17]: 0.057 ± 0.0078 µM
